Experimental data as given in publication PMC8791944, “GLUT3 inhibitor discovery through in silico ligand screening and in vivo validation in eukaryotic expression systems” (Scientific Reports, 2022).

Biological target: T1, GLUT5S72Y (Homo sapiens, UniProt P22732, S72Y)
T1 construct: expressed in transfected cells; host or cells: Saccharomyces cerevisiae hxt0 strain EBY.VW4000
T1 sequence (P22732 1-501 S72Y): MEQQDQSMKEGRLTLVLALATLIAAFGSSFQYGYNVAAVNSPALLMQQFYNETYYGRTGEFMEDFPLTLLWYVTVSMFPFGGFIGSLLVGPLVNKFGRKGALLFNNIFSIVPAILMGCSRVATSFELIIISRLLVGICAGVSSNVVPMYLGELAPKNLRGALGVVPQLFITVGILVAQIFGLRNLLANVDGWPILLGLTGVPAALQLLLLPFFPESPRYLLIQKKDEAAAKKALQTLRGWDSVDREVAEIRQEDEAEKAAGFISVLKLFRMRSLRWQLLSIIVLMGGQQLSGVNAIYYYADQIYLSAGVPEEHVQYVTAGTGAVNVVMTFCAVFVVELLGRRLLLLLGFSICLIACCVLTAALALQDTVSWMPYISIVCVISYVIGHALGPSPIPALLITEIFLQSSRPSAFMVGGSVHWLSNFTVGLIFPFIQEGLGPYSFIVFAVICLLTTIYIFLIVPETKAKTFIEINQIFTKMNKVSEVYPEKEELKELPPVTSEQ
Assay: Fructose transport assay, GLUT5S72Y expressed in hxt^0 yeast cells EBY.VW4000
Type: cell-based
Conditions: GLUT5S72Y in hxt^0 yeast cells, 10 mM fructose; read-out: IC50 for GLUT5 transport inhibition
From the text: The most studied GLUTs are Class 1 GLUTs (GLUT1-4) and a Class 2 GLUT, GLUT5 (a fructose-only transporter). GLUT3 sequence homology and identity is 79% and 64%, 71% and 52%, 74% and 57%, and 60% and 38% with GLUT1, GLUT2, GLUT4, and GLUT5, respectively. The hxt^0 yeast cell systems expressing functional GLUT1-4[65],[69] and GLUT5[66] allow us to determine the in vivo transport activity (substrate uptake by a GLUT into whole cells) for individual GLUTs and establish GLUT3 inhibitor selectivity for these transporters. […] Given the higher sequence similarity within Class 1 GLUTs, we expected GLUT3 inhibitors to affect Class 1 GLUTs much more than GLUT5. Indeed, G3iA-G3iF reduced the transport activities of some of the other Class 1 GLUTs (Fig. 3A–C, Table 2, Supplementary Fig. S6). […] For example, G3iB was an equipotent inhibitor of GLUT4, while G3iD and G3iE inhibited GLUT1 in a similar manner to GLUT3. […] Moreover, G3iD affected all Class 1 GLUTs, having the best relative selectivity for GLUT4.
Figure 3 Effect of GLUT3 inhibitors on GLUT1, GLUT2, GLUT4, and GLUT5. The transport activity was assayed as the substrate uptake in hexose transporter-deficient yeast cells expressing functional GLUT1[65], GLUT2[69], GLUT4[65], or GLUT5[66]. […] Transport assay was initiated by the addition of C^14-labeled substrate and stopped after 10 min (see “Materials and methods” for details). (A–D) Effect of G3iA-G3iF, at 50 µM concentration, on the relative transport activities of GLUT1 (A), GLUT2 (B), GLUT4 (C), and GLUT5 (D). Standard deviations for experimental points come from at least three independent measurements.
The plasmids containing functional constructs of GLUT1-5 were transformed in the corresponding hxt^0 strains[65],[66],[73] (EBY.VW4000 for GLUT5S72Y, EBY.S7 for GLUT1, GLUT2∆loopS_Q455R, GLUT3 and GLUT3S66Y, and SDY.022 for GLUT4) and grown on 2% (w/v) agar plates of the respective media supplemented with 1% (w/v) maltose. An initial culture of ~ 10 ml was started with a few colonies and grown for 2–3 days if the media was SC-uracil with 1% (w/v) maltose (GLUT1, GLUT3, GLUT4) or 1–2 days if the media was YEP with 1% (w/v) maltose and 100 µg/ml geneticin G418 (GLUT2∆loopS_Q455R and GLUT5S72Y). […] Then, cells were transferred in the same media so that OD600nm ~ 0.5 and grown further for 1–2 days.
For transport activity assay, cells in the hexose media were centrifuged (1000×g, 5 min, room temperature), washed once with PBS buffer (10 mM Na2HPO4, 1.8 mM KH2PO4, 2.7 mM KCl, 137 mM NaCl, pH 7.4), and resuspended in PBS buffer at an OD600nm ~ 10; each assay contained 100 µl of this cell solution. […] Substrate uptake into cells was linear for more than 20 min. […] The filtration membranes were transferred into scintillation vials with 10 ml of Scintillation Solution (BioSafeII; Research Products International, Mount Prospect, IL, USA), and vortexed briefly. The radioactivity was determined with a scintillation counter (Tri-carb 2900TR, Perkin Elmer, USA). As all compounds were solubilized in dimethyl sulfoxide (DMSO), controls for determining the relative transport activity included 1% (v/v) DMSO to represent DMSO used as vehicle control (i.e., 100% activity), and known inhibitors at saturating concentrations, 200 µM phloretin for GLUT1-4[69],[82], and 100 µM N-[4-(methylsulfonyl)-2-nitrophenyl]-1,3-benzodioxol-5-amine (MSNBA) for GLUT5 (i.e., complete inhibition). […] Data were analyzed with GraphPad Prism (San Diego, CA, USA).

| Structure (SMILES) | IC50 |
| --- | --- |
| COc1ccccc1-n1c(/C=C/c2ccc(O)cc2)nc2ccc(Br)cc2c1=O [G3iB, 6-bromo-2-[(E)-2-(4-hydroxyphenyl)ethenyl]-3-(2-methoxyphenyl)quinazolin-4(3H)-one] | > 50 µM |
| Cc1cc(NC(=O)CCC2Cc3ccccc3NC2=O)nc(-c2ccccc2)n1 (stereo not drawn) [G3iD] | > 50 µM |
| O=C(Nc1cccc(Cl)c1)c1cccc(NC(=O)c2cccc([N+](=O)[O-])c2)c1 [G3iE, N-{3-[(3-chloroanilino)carbonyl]phenyl}-3-nitrobenzamide] | > 50 µM |
| Cc1cccnc1OC1CCN(c2cc(N3CCCC3CO)ncn2)CC1 (stereo not drawn) [G3iC] | > 50 µM |
| Cc1ccccc1CN(Cc1nnc(C(C)(C)C)o1)c1ccc2nc(O)[nH]c2c1 [G3iF] | > 50 µM |
| CC(=O)Nc1ccc(S(=O)(=O)Nc2ccc(Nc3cc(N(C)C)nc(C)n3)cc2)cc1 [G3iA, N-(4-{[(4-{[6-(dimethylamino)-2-methylpyrimidin-4-yl]amino}phenyl)amino]sulfonyl}phenyl)acetamide] | > 50 µM |
